The data set deals with ATP-dependent translocase ABCB1 (Homo sapiens, UniProt P08183). The data set can be described thus: TP_TRANSPORTER: increase in Rhodamine 123 intracellular accumulation (R123: 1.66 uM, Staurosporine: 80 uM) in MCF7/Adr cells. It is filed as functional, cell-based. The note with it: nci/adr-res.
ATP-dependent translocase ABCB1, sequence (P08183 whole entry): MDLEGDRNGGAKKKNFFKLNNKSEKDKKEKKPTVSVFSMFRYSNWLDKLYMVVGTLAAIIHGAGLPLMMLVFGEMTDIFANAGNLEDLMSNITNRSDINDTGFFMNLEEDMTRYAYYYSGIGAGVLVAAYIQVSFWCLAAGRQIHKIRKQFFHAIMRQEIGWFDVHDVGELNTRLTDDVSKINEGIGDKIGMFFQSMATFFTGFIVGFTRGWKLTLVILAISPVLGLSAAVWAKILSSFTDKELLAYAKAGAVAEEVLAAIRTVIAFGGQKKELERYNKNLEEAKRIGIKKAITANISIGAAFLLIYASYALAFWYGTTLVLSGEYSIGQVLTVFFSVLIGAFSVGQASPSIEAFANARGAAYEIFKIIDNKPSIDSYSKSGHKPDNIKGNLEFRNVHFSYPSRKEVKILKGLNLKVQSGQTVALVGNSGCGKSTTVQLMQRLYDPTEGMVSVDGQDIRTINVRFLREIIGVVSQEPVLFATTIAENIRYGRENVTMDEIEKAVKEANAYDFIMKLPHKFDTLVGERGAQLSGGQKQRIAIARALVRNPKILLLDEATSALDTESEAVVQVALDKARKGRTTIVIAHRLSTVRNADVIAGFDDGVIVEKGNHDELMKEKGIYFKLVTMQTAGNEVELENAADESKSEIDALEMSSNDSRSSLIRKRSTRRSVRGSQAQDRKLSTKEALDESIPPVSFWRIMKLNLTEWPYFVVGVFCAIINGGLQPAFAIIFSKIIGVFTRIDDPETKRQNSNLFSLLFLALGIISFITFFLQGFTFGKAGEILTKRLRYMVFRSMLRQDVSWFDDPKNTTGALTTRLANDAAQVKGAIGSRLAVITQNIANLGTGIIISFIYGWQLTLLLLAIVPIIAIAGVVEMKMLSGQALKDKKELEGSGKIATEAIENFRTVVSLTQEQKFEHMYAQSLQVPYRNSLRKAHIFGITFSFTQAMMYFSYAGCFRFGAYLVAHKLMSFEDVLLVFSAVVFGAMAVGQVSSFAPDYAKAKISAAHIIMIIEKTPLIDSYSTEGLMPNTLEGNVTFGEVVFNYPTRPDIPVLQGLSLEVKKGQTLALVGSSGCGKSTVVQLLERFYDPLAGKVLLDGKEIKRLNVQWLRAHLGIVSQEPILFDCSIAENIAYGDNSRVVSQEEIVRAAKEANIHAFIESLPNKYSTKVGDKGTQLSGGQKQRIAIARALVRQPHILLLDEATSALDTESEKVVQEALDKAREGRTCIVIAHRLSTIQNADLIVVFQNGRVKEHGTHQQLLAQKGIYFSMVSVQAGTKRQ

As for `CN[C@@H]1C[C@H]2O[C@@](C)([C@@H]1OC)n1c3ccccc3c3c4c(c5c6ccccc6n2c5c31)C(=O)NC4` [STAUROSPORINE], the Activity amounted to 140%.
